Experimental findings from paper PMC9115709, “TIMP‐1‐expressing breast tumor spheroids for the evaluation of drug penetration and efficacy” (Bioengineering & Translational Medicine, 2021) are described below.

In data set [1] the test system is hASC monocellular spheroids. Description: Drug efficacy in hASC monocellular spheroids. The format is cell-based, human. The following applies: drug at IC50 of MDA-MB-231 monolayer cells, 2 days. The protocol: (§1) To form 3D multicellular tumor spheroids, cells was trypsinized and suspended in the growth media. Stromal cells and breast cancer cells were plated with a density of 5 × 10^3 cells /25 μL into 96‐well plate precoated with poly‐HEMA, respectively, resulting in 1 × 10^4 cells exist per each well. After seeding, the plate was centrifuged for 2 min at 1000 rpm to collect the cells in the center of the well. Fifty microliters of 10% Matrigel® Basement Membrane Matrix (Corning, NY, USA) solution diluted in media was gently added into the plate on ice to prevent matrigel from gelation. Monocellular spheroids were generated by a single culture of stromal cells or breast cancer cells. Cells were seeded with a density of 1 × 10^4 cells per well with 50 μL of 10% matrigel on a poly‐HEMA‐coated plate. Then, the plate with cells and matrigel was centrifuged at 1000 rpm for 2 min, and incubated for 48 h at 37°C with 5% CO2.

Data set [2] relates to MDA-MB-231 cells. The data set can be described thus: IC50 in MDA-MB-231 monolayer cells. The following applies: MDA-MB-231 monolayer cells, read-out: MDA-MB-231 IC50. The format is cell-based, human.
The test system of data set [3] is Multicellular spheroids with hASC and MDA-MB-231. The data set can be described thus: Drug efficacy in hASC and MDA-MB-231 multicellular (A:M) spheroids, CellTiter-Glo 3D. The format is cell-based, human. The following applies: drug at IC50 of MDA-MB-231 monolayer cells, 2 days. The procedure:
as §1

Data set [4] deals with MDA-MB-231 monocellular spheroids. The data set can be described thus: Drug efficacy in MDA-MB-231 monocellular spheroids. The format is cell-based, human. The following applies: drug at IC50 of MDA-MB-231 monolayer cells, 2 days. The procedure: as §1
In data set [5] the test system is Multicellular spheroids with hASC and MDA-MB-231. The data set can be described thus: Permeability value (PV) in the 3D tumor model. The following applies: PV = EffA:M - 1/2(EffASC + EffMDA), Equation (4).
Procedure: Therefore, we defined the permeability value (PV) of each drug as the difference in efficacy in multicellular and monocellular spheroids, as determined by Equation (4).
After treating the drug with spheroids for 2 days, the efficacy of the drug was evaluated by CellTiter‐Glo® 3D Cell Viability Assay (Promega). […] (4) PV=EffA:M−1/2EffASC+EffMDA.
Data set [6] deals with hBMSC-co-cultured spheroids (B:M). Description: Drug penetration (intrinsic fluorescence) in hBMSC-co-cultured tumor spheroids. The format is cell-based, human. The following applies: 10 μM, 48 h, fluorescence microscopy. The protocol: (§2) We next tested whether ECM deposition on the surface of spheroids would affect the penetration of anticancer drugs and their efficacy. Three types of 3D multicellular tumor spheroids were formed and treated with 10 μM doxorubicin, epirubicin, or topotecan, which are chemotherapeutic agents for various tumors, including breast cancer, for an additional 48 h.
as §1
(§3) Spheroids were transferred to an opaque‐walled multiwall plate and analyzed by ATP‐based cell viability assays using Real Time‐Glo™ MT Cell Viability Assay (Promega, Madison, WI, USA) according to the manufacturer's protocol. […] Necrotic cells of spheroids were analyzed in Real Time‐Glo™ Annexin V Necrosis Assay (Promega) following the manufacturer's instructions. Luminescence was measured using a Glomax discovery multi Microplate Reader (Glomax discovery, Promega) with an integration time of 0.25–1.0 s per well.

The subject of data set [7] is 3D multicellular tumor spheroids. The data set can be described thus: Necrosis in tumor spheroids, Real Time-Glo Annexin V Necrosis Assay. The format is cell-based, human. The following applies: A:M spheroids with control siRNA or siTIMP-1 hASCs.
The test system of data set [8] is hASC-co-cultured spheroids (A:M). Description: Drug efficacy in multicellular tumor spheroids, Real Time-Glo MT Cell Viability Assay. The format is cell-based, human. The following applies: hASCs transfected with siTIMP-1, 48 h treatment. The protocol:
as §3

The subject of data set [9] is hDF-co-cultured spheroids (F:M). The data set can be described thus: Drug penetration (intrinsic fluorescence) in hDF-co-cultured tumor spheroids. The format is cell-based, human. The following applies: 10 μM, 48 h, fluorescence microscopy. The procedure:
as §2, §1, §3

Data set [10] has as its system hASC-co-cultured spheroids (A:M). The data set can be described thus: Drug penetration (intrinsic fluorescence) in hASC-co-cultured tumor spheroids. The format is cell-based, human. The protocol:
as §2, §1, §3

SMILES strings stand for the structures. Like-named read-outs stand apart in the source and are kept apart here.

Regarding `CC1(C)[C@@H](O[C@H]2O[C@H](C(=O)O)[C@@H](O)[C@H](O)[C@H]2O[C@@H]2O[C@H](C(=O)O)[C@@H](O)[C@H](O)[C@H]2O)CC[C@]2(C)[C@H]3C(=O)C=C4[C@@H]5C[C@@](C)(C(=O)O)CC[C@]5(C)CC[C@@]4(C)[C@]3(C)CC[C@@H]12` [Ammonium-glycyrrhizinate], in data set [1], the “hASC spheroid Efficacy (EffASC, %)” value was determined as 33.753%. Moreover, in data set [2], the IC50 was found to be 72.1 µM. Moreover, the “A:M spheroid Efficacy (EffA:M, %)” value in [3] is given as 27.510%. Also, in [4], the “MDA spheroid Efficacy (EffMDA, %)” value was 40.204%. For the same compound, in data set [5], the “Experiment's PV #1” value is given as -0.114, the “Experiment's PV #2” value is recorded as -0.075 and the “Experiment's PV #3” value is recorded as -0.095.

With `COc1cccc2c1C(=O)c1c(O)c3c(c(O)c1C2=O)C[C@@](O)(C(=O)CO)C[C@@H]3O[C@H]1C[C@H](N)[C@@H](O)[C@H](C)O1` [Epirubicin], the “Distribution of drug inside the spheroids” value in data set [6] was “distributed throughout”. For the same compound, in data set [1], the “hASC spheroid Efficacy (EffASC, %)” value amounted to 45.548%. Further, the IC50 in data set [2] (Homo sapiens) stood at 1.57 µM. The “Necrotic cells after drug treatment” value in data set [7] was “Few necrotic cells”. Moreover, the “Drug efficacy, TIMP-1-silenced hASCs vs control” value in data set [8] is given as “significantly increased”. In addition, in [9], the “Distribution of drug inside the spheroids” value is “distributed throughout”. Also, the “MDA spheroid Efficacy (EffMDA, %)” value in [4] was 23.696%. In addition, in [5], the “Experiment's PV #1” value is -0.096, the “Experiment's PV #2” value is reported as -0.017 and the “Experiment's PV #3” value is listed as -0.056. Moreover, the “Amount of drug inside the spheroids compared to other spheroids” value in [10] (10 μM, 48 h, fluorescence microscopy, vs hBMSC- or hDF-co-cultured spheroids) was “significant reduction”. The “Amount of drug penetrating the spheroids, TIMP-1 silencing vs control siRNA” value in data set [10] (hASCs transfected with siTIMP-1, 48 h treatment) is “significantly increased”.
